Measurements reported in PMC7804430, “Synthesis and tumour cell uptake studies of gadolinium(III)–phosphonium complexes” (Scientific Reports, 2021).

Key:
[1] = literature values for HPLC calibration curve; cited from earlier work
HF1 tumour cell line = test system: HF1 tumour cell line; set-up: method as in PMID 19825958, PMID 15388578; details: cited from earlier work
[2] = Competition (challenge) stability assay with xylenol orange at acidic pH; type: physicochemical; details: absorbance shift 433 to 573 nm
Experimental: In this work, the relative stability of complexes 6 and 7 were compared to the previously-reported archetypal Gd(III)-DO3A triphenylphosphonium complex (11, shown in Fig. 2) at acidic pH by means of a competition (challenge) assay using the lanthanoid(III) ion indicator xylenol orange[32]. These assays were performed under mildly acidic conditions to ensure the phenolic hydroxyl was protonated prior to chelation.
Solution stability assays were performed using the method described by Barge et al.[32]. Initially an acetate buffer solution (50 mM) was prepared, a portion of which was adjusted to pH 5.8 using NaOH, while other portions were adjusted to pH 5.0, 4.0, or 3.0 using glacial acetic acid. Xylenol orange (5.81 mg) was dissolved in the pH 5.8 acetate buffer (48.4 mL) to give a 10 × concentrated stock solution. These solutions were treated as light sensitive, work was conducted in minimal light and solutions were covered in foil.
25 mM stock solutions of each GdCl3, […] 11 were prepared in the various buffer solutions. […] The plates were agitated in a plate reader and allowed to equilibrate for 24 h. […] The plates were again agitated in a plate reader and allowed to equilibrate for 15 min at RT. The absorbance values were then determined at both 573 nm and 433 nm by means of a BMG LABTECH POLARstar Omega, UV Spectrometer, and the data plotted and processed using Graphpad Prism 7.

Nc1ccccc1 [aniline]
logD7.4 of calibration standards [1]: 0.90

c1ccc(N(c2ccccc2)c2ccccc2)cc1 [triphenylamine]
logD7.4 of calibration standards [1]: 5.74

Motexafin-Gd [MGd]
IC50 (HF1 tumour cell line; HF1 tumour cell line, read-out: Concentration resulting in 50% cell arrest): < 100 µM | Concentration exhibiting significant cytotoxicity (HF1 tumour cell line; in the absence of any X-ray irradiation): ca. 50 μM

[Cl][Gd]([Cl])[Cl] [GdCl3]
% Gd^3+ retention ([2]; pH 5.0, 24 h): 0% | % Gd^3+ retention ([2]; pH 5.8, 24 h): 0%
